Experimental data as given in the supplement of paper PMC10307832.

Tests used:
Test in all cases: relative viability (nuclei count vs DMSO), 5 days (fraction); higher = more cells survive
XMD13-2 + AZD7762 = compound: C1CC1C(=O)NC2=NNC3=C2C=CC(=C3)C4=CC(=CC=C4)C(=O)NC5CC5 [XMD13-2] + NC(=O)Nc1cc(-c2cccc(F)c2)sc1C(=O)N[C@H]1CCCNC1 [AZD7762] (partner 0.2 µM)
Method in brief: (§1)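 After 5 days of treatment, lung cancer cells in 1536-well plates were fixed and stained in a single step (final 0.05% Triton X-100, 1% formaldehyde, 1 ug/ml Hoechst) and their nuclei counted on 4× images. Treatment had been applied by pin tool the day after seeding as one drug alone or as a fixed anchor-drug dose with five library-drug doses (not always all listed) in √10 steps. Relative viability is the nuclei count of treated wells divided by that of vehicle wells, and values are medians of duplicate plates.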

Dasatinib + Navitoclax = compound: Cc1nc(Nc2ncc(C(=O)Nc3c(C)cccc3Cl)s2)cc(N2CCN(CCO)CC2)n1 [Dasatinib] + CC1(C)CCC(c2ccc(Cl)cc2)=C(CN2CCN(c3ccc(C(=O)NS(=O)(=O)c4ccc(N[C@H](CCN5CCOCC5)CSc5ccccc5)c(S(=O)(=O)C(F)(F)F)c4)cc3)CC2)C1 [Navitoclax] (partner 0.5 µM)
Method in brief: as §1

ALW-II-49-7 + Navitoclax = compound: Cc1ccc(C(=O)Nc2cccc(C(F)(F)F)c2)cc1Nc1cncc(C(N)=O)c1 [ALW-II-49-7] + CC1(C)CCC(c2ccc(Cl)cc2)=C(CN2CCN(c3ccc(C(=O)NS(=O)(=O)c4ccc(N[C@H](CCN5CCOCC5)CSc5ccccc5)c(S(=O)(=O)C(F)(F)F)c4)cc3)CC2)C1 [Navitoclax] (partner 0.5 µM)
Method in brief: as §1

XMD13-2 + Lapatinib = compound: C1CC1C(=O)NC2=NNC3=C2C=CC(=C3)C4=CC(=CC=C4)C(=O)NC5CC5 [XMD13-2] + CS(=O)(=O)CCNCc1ccc(-c2ccc3ncnc(Nc4ccc(OCc5cccc(F)c5)c(Cl)c4)c3c2)o1 [Lapatinib] (partner 2 µM)
Method in brief: as §1

Row | Cell Line | relative viability (XMD13-2 + AZD7762; first compound 0.05 µM) | relative viability (XMD13-2 + AZD7762; first compound 0.1581 µM) | relative viability (XMD13-2 + AZD7762; first compound 0.5 µM) | relative viability (XMD13-2 + AZD7762; first compound 1.581 µM) | relative viability (XMD13-2 + AZD7762; first compound 5 µM) | relative viability (Dasatinib + Navitoclax; first compound 0.005 µM) | relative viability (Dasatinib + Navitoclax; first compound 0.01581 µM) | relative viability (Dasatinib + Navitoclax; first compound 0.05 µM) | relative viability (Dasatinib + Navitoclax; first compound 0.1581 µM) | relative viability (Dasatinib + Navitoclax; first compound 0.5 µM) | relative viability (ALW-II-49-7 + Navitoclax; first compound 0.08 µM) | relative viability (ALW-II-49-7 + Navitoclax; first compound 0.253 µM) | relative viability (ALW-II-49-7 + Navitoclax; first compound 0.8 µM) | relative viability (ALW-II-49-7 + Navitoclax; first compound 2.53 µM) | relative viability (ALW-II-49-7 + Navitoclax; first compound 8 µM) | relative viability (XMD13-2 + Lapatinib; first compound 0.05 µM) | relative viability (XMD13-2 + Lapatinib; first compound 0.1581 µM) | relative viability (XMD13-2 + Lapatinib; first compound 0.5 µM) | relative viability (XMD13-2 + Lapatinib; first compound 1.581 µM) | relative viability (XMD13-2 + Lapatinib; first compound 5 µM)
1 | 201T | 0.634 | 0.707 | 0.584 | 0.616 | 0.61 | 1.15 | 1.2 | 1.13 | 1.01 | 0.65 | 1.18 | 1.22 | 1.21 | 1.27 | 1.23 | 1.06 | 1.13 | 1.02 | 1.07 | 1.08
2 | A549 | – | – | – | – | – | 1.27 | 1.2 | 1.27 | 1.06 | 0.443 | 1.2 | 1.21 | 1.33 | 1.15 | 1.21 | 1.2 | 0.974 | 0.938 | 0.811 | 0.891
3 | A-427 | 0.899 | 0.74 | 0.811 | – | 0.588 | 0.891 | 0.92 | 0.673 | 0.476 | 0.495 | 1.07 | 0.942 | 0.998 | 0.994 | 1.05 | 1.1 | 1.01 | 1.1 | 1.01 | 1.05
4 | ABC-1 | – | 0.897 | 0.531 | – | 0.745 | – | – | – | – | – | – | – | – | – | – | 1.42 | 1.29 | 1.12 | 1.2 | 1.23
5 | BEN | 0.799 | 0.777 | 0.638 | 0.594 | 0.729 | 0.0479 | 0.0657 | 0.0572 | 0.0599 | 0.0611 | 0.111 | 0.0965 | 0.0694 | – | 0.0797 | 0.954 | 0.829 | 0.802 | 0.597 | 0.621
6 | CAL-12T | 0.625 | 0.708 | 0.583 | 0.563 | 0.933 | 1.36 | 1.17 | 1.49 | 1.35 | 0.97 | 1.15 | 1.08 | 1.2 | 1.42 | 1.17 | 0.627 | – | 0.795 | 0.537 | 0.46
7 | COR-L23 | – | – | – | – | – | 1.01 | 0.85 | 0.797 | 0.55 | 0.347 | 1.14 | 0.954 | 1.04 | 0.805 | 1.27 | 1.26 | 1.09 | 0.929 | 1.08 | 0.91
8 | COR-L 105 | – | – | – | – | – | 0.588 | 0.49 | 0.52 | 0.368 | 0.278 | 0.812 | 0.669 | 0.767 | 0.721 | 0.655 | 0.395 | 0.319 | 0.426 | 0.346 | 0.27
9 | Calu-6 | – | – | – | – | – | 0.762 | 0.759 | 0.646 | 0.571 | 0.589 | 0.814 | 0.84 | 0.731 | 0.591 | 0.636 | 1.18 | 0.93 | 1.11 | 0.983 | 0.736
10 | ChaGo-K-1 | 0.956 | 0.97 | 0.892 | 0.924 | 0.881 | 0.618 | 1.08 | 0.965 | 0.909 | 0.923 | 0.931 | 1.45 | 1.27 | 1.29 | 0.753 | – | – | – | – | –
11 | EBC-1 | – | – | – | – | – | 0.477 | 0.289 | 0.314 | 0.25 | 0.283 | 0.403 | 0.377 | 0.348 | 0.321 | 0.277 | 0.199 | 0.22 | 0.215 | 0.185 | 0.214
12 | EKVX | 0.888 | 0.689 | 0.54 | – | 0.719 | 0.951 | 0.958 | 0.821 | 0.407 | 0.18 | 0.942 | 0.888 | 0.832 | 0.502 | 1.08 | 0.205 | 0.173 | 0.177 | 0.192 | 0.196
13 | EMC-BAC-2 | 1.34 | 1.16 | 1.06 | 0.984 | 0.864 | 1.13 | 0.939 | 0.936 | 0.548 | 0.28 | 0.972 | 1.19 | 1.18 | 1.01 | 1.07 | 1.03 | 0.866 | 0.92 | 0.879 | 0.532
14 | EPLC-272H | 0.294 | 0.237 | 0.0561 | 0.156 | 0.231 | 1.32 | 1.06 | 1.39 | 0.959 | 0.473 | 1.16 | 1.03 | 1.04 | 1.06 | 1.19 | 1.09 | 0.897 | 1.01 | 0.817 | 0.911
15 | H3255 | 0.949 | 1.09 | 0.829 | 0.847 | 0.855 | 0.542 | 0.527 | 0.388 | 0.187 | 0.115 | 0.581 | 0.541 | 0.375 | 0.313 | 0.538 | 0.444 | 0.223 | 0.297 | 0.199 | 0.201
16 | HARA | 0.301 | 0.557 | 0.263 | 0.376 | 0.37 | 1.15 | 0.974 | 1 | 0.596 | 0.326 | 1.22 | 1.07 | 1.13 | 1.15 | 1.22 | 0.825 | 0.886 | 0.699 | 0.711 | 0.538
17 | HCC-15 | 1.35 | 1.15 | 1.17 | 1.22 | 1.24 | 0.692 | 0.528 | 0.555 | 0.332 | 0.239 | 0.768 | 0.772 | 0.695 | 0.824 | 0.729 | 0.983 | 0.761 | 0.918 | 0.801 | 0.519
18 | HCC-44 | 0.944 | 0.98 | 0.969 | 1.05 | 1.02 | 0.93 | 0.916 | 0.98 | 0.761 | 0.436 | 1.12 | 0.958 | 0.988 | 0.891 | 1.06 | 1.01 | 1.12 | 1.08 | 0.957 | 0.771
